Values quoted from earlier work as cited in patent US20090182054A1, “Topical compositions containing solubilized dicarboxylic acids” (priority 2008, published 2009).

What was measured:
[1] = system: inflammatory papule lesions and erythema; conditions: topical application
[2] = water, 25 deg C

For O=C(O)CCCCCCCC(=O)O [azelaic acid, Azelaic acid], the “inflammatory papule lesions and erythema” value [1] is listed as “significantly reduce” and the solubility [2] is listed as 0.24 gram per 100 gram of water.
